We go through two molecules from ChEMBL document CHEMBL1221243, “Design, synthesis, and biological evaluation of a novel series of quercetin diacylglucosides as potent anti-MRSA and anti-VRE agents” (Bioorg Med Chem Lett, 2010).

Molecules are shown by their SMILES. In brackets after ≈: the same amount, converted by molar mass.

The subject of assay [1] is Staphylococcus aureus. As to the kind of experiment: Antimicrobial activity against methicillin-resistant Staphylococcus aureus COL after 24 hrs by microdilution assay. In kind it is functional. In general terms: Dilution methods test growth across graded concentrations, often in twofold steps.
Assay [2] relates to Staphylococcus aureus. As to the kind of experiment: Antimicrobial activity against methicillin-resistant Staphylococcus aureus OM584 after 24 hrs by microdilution assay. In kind it is functional. The note with it: OM584, 24 h.
Assay [3] is described as follows: Inhibition of Escherichia coli DNA gyraseB assessed as inhibition of pBR322 supercoiling by densitometry.
For assay [4], the system named is Staphylococcus aureus. Description: Antimicrobial activity against methicillin-resistant Staphylococcus aureus OM481 after 24 hrs by microdilution assay. In kind it is functional. Particulars: OM481, 24 h.
Assay [5] is described as follows: Inhibition of Escherichia coli DNA gyraseB calculated by AutoDock docking into the ATP binding site.
Assay [6] has as its system Staphylococcus aureus. Description: Antimicrobial activity against methicillin-sensitive Staphylococcus aureus 209P after 24 hrs by microdilution assay. In kind it is functional.
The next assay deals with Escherichia coli. As to the kind of experiment: Antimicrobial activity against Escherichia coli K-12 after 24 hrs by microdilution assay. In kind it is functional. Particulars: K-12, 24 h.
In assay [7] the test system is Staphylococcus aureus. As to the kind of experiment: Antimicrobial activity against methicillin-resistant Staphylococcus aureus N315 after 24 hrs by microdilution assay. The note with it: N315, 24 h. In kind it is functional.
Assay [8] concerns Enterococcus. Description: Antimicrobial activity against vancomycin-resistant Enterococcus FN-1 after 24 hrs by microdilution assay. The note with it: FN-1, 24 h. In kind it is functional.
For assay [9], the system named is Enterococcus. As to the kind of experiment: Antimicrobial activity against vancomycin-resistant Enterococcus NCTC 12201 after 24 hrs by microdilution assay. In kind it is functional. The note with it: NCTC 12201, 24 h.
In assay [10] the test system is Staphylococcus aureus. As to the kind of experiment: Antimicrobial activity against vancomycin intermediate-resistant Staphylococcus aureus Mu50 after 24 hrs by microdilution assay. In kind it is functional. The note with it: Mu50, 24 h.

For orientation: MIC means the smallest concentration in the dilution series that meets the test's criterion for growth inhibition. What is called IC50 is the point on the concentration scale where inhibition reaches its midpoint. The Ki is a dissociation constant, usually derived from enzyme kinetics or from competition with a known ligand. For `CCn1cc(C(=O)O)c(=O)c2cc(F)c(N3CCNCC3)cc21` [NORFLOXACIN], the MIC against Staphylococcus aureus [1] is 1 µg/mL (≈ 3.13 µM); in the assay on Staphylococcus aureus [2], 128 µg/mL (≈ 401 µM); against Staphylococcus aureus [4], 64 µg/mL (≈ 200 µM); against Staphylococcus aureus [6] it was 0.5 µg/mL (≈ 1.57 µM); in the assay on Escherichia coli, 0.25 µg/mL (≈ 0.783 µM); against Staphylococcus aureus [7], 2 µg/mL (≈ 6.26 µM). The IC50 in [3] amounted to 90 nM. Besides, the Ki in [5] was 0.09 nM.
Turning to `CN[C@H](CC(C)C)C(=O)N[C@H]1C(=O)N[C@@H](CC(N)=O)C(=O)N[C@H]2C(=O)N[C@H]3C(=O)N[C@H](C(=O)N[C@H](C(=O)O)c4cc(O)cc(O)c4-c4cc3ccc4O)[C@H](O)c3ccc(c(Cl)c3)Oc3cc2cc(c3O[C@@H]2O[C@H](CO)[C@@H](O)[C@H](O)[C@H]2O[C@H]2C[C@](C)(N)[C@H](O)[C@H](C)O2)Oc2ccc(cc2Cl)[C@H]1O` [VANCOMYCIN], the minimal inhibitory concentration (MIC) against Staphylococcus aureus [1] was 0.25 µg/mL (≈ 0.173 µM); against Staphylococcus aureus [2], 0.25 µg/mL (≈ 0.173 µM); in the assay with Staphylococcus aureus [4] it was 0.25 µg/mL (≈ 0.173 µM); with Staphylococcus aureus [6] it was 0.25 µg/mL (≈ 0.173 µM); against Enterococcus [8], greater than 128 µg/mL; with Staphylococcus aureus [7] it was 0.25 µg/mL (≈ 0.173 µM). Further, the MIC in the assay with Enterococcus [9] was greater than 128 µg/mL; in the assay on Staphylococcus aureus [10], 8 µg/mL (≈ 5.52 µM).
